Measured values published in article PMC3447774, “Genes Encoding Cher-TPR Fusion Proteins Are Predominantly Found in Gene Clusters Encoding Chemosensory Pathways with Alternative Cellular Functions” (PLoS ONE, 2012).

Key:
Assay in all cases: isothermal titration calorimetry
Assay type in all cases: binding
[1] = target: T1, WspC-Ppmiddle (Pseudomonas putida, UniProt Q88MS8)
T1 construct: amino acids 1-355, CheR domain plus linker, lacks TPR domain
From the text: isothermal titration calorimetry on WspC-Ppmiddle

[2] = target: T2, WspC-Pp (Pseudomonas putida, UniProt Q88MS8)
T2 construct: full-length CheR-linker-TPR protein; monomer
From the text: isothermal titration calorimetry on WspC-Pp

[3] = target: T3, WspC-Ppshort (Pseudomonas putida, UniProt Q88MS8)
T3 construct: amino acids 1-240, CheR domain only, lacks linker and TPR domain
From the text: isothermal titration calorimetry on WspC-Ppshort

T2 sequence (Q88MS8 whole entry): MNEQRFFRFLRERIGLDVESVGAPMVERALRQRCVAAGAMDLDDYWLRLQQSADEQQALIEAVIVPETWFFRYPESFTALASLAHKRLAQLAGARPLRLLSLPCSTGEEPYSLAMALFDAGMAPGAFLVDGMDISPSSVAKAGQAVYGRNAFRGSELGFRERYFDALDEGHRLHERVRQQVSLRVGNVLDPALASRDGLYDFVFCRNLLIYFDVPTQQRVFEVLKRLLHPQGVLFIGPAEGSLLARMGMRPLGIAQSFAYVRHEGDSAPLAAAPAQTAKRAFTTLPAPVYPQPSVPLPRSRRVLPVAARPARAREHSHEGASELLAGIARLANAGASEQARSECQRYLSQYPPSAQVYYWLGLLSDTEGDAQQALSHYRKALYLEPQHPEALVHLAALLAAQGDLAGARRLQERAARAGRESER
T3 sequence (Q88MS8 1-283): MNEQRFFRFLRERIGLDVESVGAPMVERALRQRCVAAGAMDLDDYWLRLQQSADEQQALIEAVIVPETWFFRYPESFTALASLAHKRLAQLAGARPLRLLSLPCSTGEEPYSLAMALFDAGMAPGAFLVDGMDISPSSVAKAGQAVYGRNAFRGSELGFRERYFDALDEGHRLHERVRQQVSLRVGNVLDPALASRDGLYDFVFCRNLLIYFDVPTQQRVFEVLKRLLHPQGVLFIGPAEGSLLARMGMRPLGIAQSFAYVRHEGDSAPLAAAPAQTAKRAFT
T1 sequence (Q88MS8 1-355): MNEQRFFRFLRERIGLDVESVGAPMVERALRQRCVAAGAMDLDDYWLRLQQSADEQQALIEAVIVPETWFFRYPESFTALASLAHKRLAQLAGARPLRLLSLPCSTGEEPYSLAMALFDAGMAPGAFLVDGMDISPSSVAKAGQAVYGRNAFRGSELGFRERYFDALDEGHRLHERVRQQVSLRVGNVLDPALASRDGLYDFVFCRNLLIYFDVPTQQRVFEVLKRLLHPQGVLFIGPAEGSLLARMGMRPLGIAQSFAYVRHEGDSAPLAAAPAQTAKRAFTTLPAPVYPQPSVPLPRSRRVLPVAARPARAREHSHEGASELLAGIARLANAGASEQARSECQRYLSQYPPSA

| Kd [1] [µM] | Kd [2] [µM] | Kd [3] [µM] | Compound |
| --- | --- | --- | --- |
| 1.6 ± 0.1 | 1.7 ± 0.1 | 2 ± 0.1 | Nc1ncnc2c1ncn2[C@@H]1O[C@H](CSCC[C@H](N)C(=O)O)[C@@H](O)[C@H]1O [S-adenosylhomocysteine] |
| 35 ± 2 | 43 ± 2 | 41 ± 4 | C[S+](CC[C@H](N)C(=O)O)C[C@H]1O[C@@H](n2cnc3c(N)ncnc32)[C@H](O)[C@@H]1O (stereo partly drawn) [S-adenosylmethionine] |
